Measured values from publication PMC10440361 (Current Research in Pharmacology and Drug Discovery, 2023).
Like-named read-outs stand apart in the source and are kept apart here.

Tests used:
[1] = system: adult male cynomolgus monkeys; type: in vivo; details: for average increase in MAP between 30 min and 5 h: vehicle 3.5 mmHg; for maximum MAP values (increase from baseline) / maximum Δ MAP: telemetered cynomolgus monkeys; for maximum MAP values (increase from baseline): IV vehicle 22.2 ± 3.5 mmHg; for time for which increases from baseline in MAP above 20 mmHg were sustained: average; for average increase in MAP between 30 min and 5 h after administration: vehicle SC 0.8 mmHg; for maximum Δ MAP: vehicle SC 25.9 ± 1.6 mmHg
adult male Wistar rats = experiment: Skin blood flow; type: in vivo; details: anesthetized rats, IV infusion; discussion statement
human V1a receptors = details: read-out: EC50 for human V1a; ref Croston et al., 2023; cited from earlier work
human V2 receptors = details: ref Croston et al., 2023, cited from earlier work
[2] = system: adult male Sprague Dawley rats; experiment: Arterial blood pressure by telemetry after SC administration in rats; type: in vivo; details: conscious telemetered Sprague Dawley rats, n=6
rat V2 receptor = details: cell-based functional assays; ref Croston et al., 2023; cited from earlier work

## N-[N-(N-glycylglycyl) glycyl]-8-L-lysinevasopressin [Terlipressin]
[1]; monkeys, IV bolus 0.03 mg/kg, on average
  time past which MAP increases from baseline above 20 mmHg were not sustained: ≤ 30 min
[1]; monkeys, IV bolus 0.03 mg/kg
  average increase in MAP between 30 min and 5 h: 6.0 mmHg
[1]; monkeys, IV bolus 0.09 mg/kg, on average
  time past which MAP increases from baseline above 20 mmHg were not sustained: ≤ 30 min
[1]; monkeys, IV bolus 0.09 mg/kg
  average increase in MAP between 30 min and 5 h: 5.8 mmHg
[1]; monkeys, IV bolus 0.17 mg/kg, on average
  time past which MAP increases from baseline above 20 mmHg were not sustained: ≤ 75 min
[1]; monkeys, IV bolus 0.17 mg/kg
  average increase in MAP between 30 min and 5 h: 14.6 mmHg
[1]; monkeys, IV bolus 0.34 mg/kg, on average
  time past which MAP increases from baseline above 20 mmHg were not sustained: ≤ 90 min
[1]; monkeys, IV bolus 0.34 mg/kg
  average increase in MAP between 30 min and 5 h: 14.7 mmHg
[1]; monkeys, IV bolus, all treatment groups 0.03 to 0.34 mg/kg, on average
  time after administration by which ΔMAP was negligible: ≤ 150 min
[1]; IV bolus 0.03 mg/kg
  maximum MAP values (increase from baseline): 29.6 ± 3.6 mmHg
[1]; IV bolus 0.09 mg/kg
  maximum MAP values (increase from baseline): 29.9 ± 6.2 mmHg
[1]; IV bolus 0.17 mg/kg
  maximum MAP values (increase from baseline): 50.8 ± 5.6 mmHg
[1]; IV bolus 0.34 mg/kg
  maximum MAP values (increase from baseline): 41.2 ± 7.5 mmHg

## [Phe2,Dab(Lys(Lys(Ac)-[Ala6,Glu9]))8]VT [OCE-205]
Adult male Wistar rats
  approximately maximal decrease in SBF from baseline: ~40%
Human V1a receptors
  EC50: 0.7 nM
Human V2 receptors; at clinically relevant concentrations
  activity at human V2 receptors: little to no activity
Human V2 receptors; cell-based functional assays
  activity at the human V2 receptor: no activity
[1]; monkeys, SC bolus 0.01 mg/kg
  time for which increases from baseline in MAP above 20 mmHg were sustained: 150 min
  average increase in MAP between 30 min and 5 h after administration: 20.6 mmHg
[1]; monkeys, SC bolus 0.05 mg/kg
  time for which increases from baseline in MAP above 20 mmHg were sustained: 75 min
  average increase in MAP between 30 min and 5 h after administration: 18.4 mmHg
[1]; monkeys, SC bolus 0.5 mg/kg
  time for which increases from baseline in MAP above 20 mmHg were sustained: 300 min
  average increase in MAP between 30 min and 5 h after administration: 24.8 mmHg
[1]; monkeys, SC bolus 0.5 mg/kg, on average
  Δ MAP maintained throughout the 8 h of measurement: above 14 mmHg
[1]; SC bolus 0.01 mg/kg
  maximum Δ MAP: 36.1 ± 2.1 mmHg
[1]; SC bolus 0.05 mg/kg
  maximum Δ MAP: 34.9 ± 1.1 mmHg
[1]; SC bolus 0.5 mg/kg
  maximum Δ MAP: 41.6 ± 6.5 mmHg
[2]; SC 0.1 mg/kg, at 1 h
  maximum increase in mean arterial blood pressure vs mean pre-test value: +22 mmHg
[2]; SC 0.6 mg/kg, at 2 h
  maximum increase in mean arterial blood pressure vs mean pre-test value: +22 mmHg
[2]; SC 4 mg/kg, at 3 and 4 h
  maximum increase in mean arterial blood pressure vs mean pre-test value: +38 mmHg
[2]; SC 20 mg/kg, at 4 h
  maximum increase in mean arterial blood pressure vs mean pre-test value: +46 mmHg
Rat V2 receptor
  activity at the rat V2 receptor: no activity
